Assay results reported in patent US10035790B2, “RORγ modulators” (BRISTOL-MYERS SQUIBB COMPANY, priority 2012, dated 2018).

Molecular target: T1, ligand binding domain of human RORγ (A262-S507) (Homo sapiens, UniProt P51449)
T1 construct: made in house; host or cells: E. coli
T1 sequence (P51449 262-507): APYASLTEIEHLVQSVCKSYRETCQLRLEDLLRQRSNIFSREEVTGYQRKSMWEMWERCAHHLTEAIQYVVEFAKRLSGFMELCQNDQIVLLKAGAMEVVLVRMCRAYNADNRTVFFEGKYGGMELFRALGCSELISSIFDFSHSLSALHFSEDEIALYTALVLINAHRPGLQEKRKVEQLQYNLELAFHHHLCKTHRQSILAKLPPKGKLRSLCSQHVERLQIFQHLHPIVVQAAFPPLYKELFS
Experiment: General RORγ SPA binding assay (competition with [3H]25-hydroxycholesterol)
Conditions: RORγ SPA binding assay, inhibition of [3H]25-hydroxycholesterol binding; read-out: IC50
Outline: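 Scintillation counts from copper His-tag SPA beads (4 mg/mL, 30 min) gave percent inhibition of radioligand binding, from which IC50 values are derived. The E. coli-expressed His-tagged domain (50 nM) is first exposed to compound for 15 min at room temperature in PBS containing 0.5% fatty acid free BSA.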

| SMILES | IC50 [nM] |
| --- | --- |
| C/C(=N/Oc1cc(F)nc(F)c1)c1cnc(N)nc1C1CCN(C(=O)Nc2c(F)cccc2F)CC1 [Compound B57, 4-(2-Amino-5-{(1Z)—N-[(2,6-difluoropyridin-4-yl)oxy]ethanimidoyl}pyrimidin-4-yl)-N-(2,6-difluorophenyl)piperidine-1-carboxamide] | 92.7 |
| Cc1ncc(C(C)(O)CNc2nccc(C(F)(F)F)n2)c(C2CCN(C(=O)Cc3c(F)cccc3F)CC2)n1 (stereo not drawn) [Compound D23, 2-(4-{1-[(2,6-Difluorophenyl)acetyl]piperidin-4-yl}-2-methylpyrimidin-5-yl)-1-{[4-(trifluoromethyl)pyrimidin-2-yl]amino}propan-2-ol] | 18.5 |
| Cc1cc(C)cc(CNC(=O)c2cnc(C)nc2C2CCN(C(=O)Oc3c(F)cccc3F)CC2)c1 [Compound A120, 2,6-Difluorophenyl 4-[5-({[(3,5-dimethylphenyl)methyl]amino}carbonyl)-2-methylpyrimidin-4-yl]piperidine-1-carboxylate] | 6 |
| CCNc1ncc(C(C)(O)COc2ccnc(C(F)(F)F)n2)c(C2CCN(C(=O)Nc3c(F)cccc3F)CC2)n1 (stereo not drawn) [Compound D35, N-(2,6-Difluorophenyl)-4-[2-(ethylamino)-5-(1-hydroxy-1-methyl-2-{[2-(trifluoromethyl)pyrimidin-4-yl]oxy}ethyl)pyrimidin-4-yl]piperidine-1-carboxamide] | 14.8 |
| Cc1cc(C)nc(NCC(C)(O)c2cnc(C)nc2C2CCN(C(=O)Cc3c(F)cccc3F)CC2)c1 (stereo not drawn) [Compound D6, 2-(2,6-difluorophenyl)-1-(4-(5-(1-((4,6-dimethylpyridin-2-yl)amino)-2-hydroxypropan-2-yl)-2-methylpyrimidin-4-yl)piperidin-1-yl)ethanone] | 23.3 |
| COc1ccccc1CC(=O)N1CCC(c2nc(C)ncc2C(=O)NCc2cc(C)cc(C)c2)CC1 [Compound A10, N-(3,5-dimethylbenzyl)-4-(1-(2-(2-methoxyphenyl)acetyl)piperidin-4-yl)-2-methylpyrimidine-5-carboxamide] | 33.1 |
| CC(O)(COc1ccnc(C(F)(F)F)n1)c1cnc(N)nc1C1CCN(C(=O)Nc2c(F)cccc2F)CC1 (stereo not drawn) [Compound D29, 4-[2-Amino-5-(1-hydroxy-1-methyl-2-{[2-(trifluoromethyl)pyrimidin-4-yl]oxy}ethyl)pyrimidin-4-yl]-N-(2,6-difluorophenyl)piperidine-1-carboxamide] | 14.4 |
| [2H]C([2H])c1nc(C)c(-c2nnc(-c3ccnc(C(F)(F)F)n3)o2)c(C2CCN(C(=O)C([2H])c3c(F)cccc3F)CC2)n1 (stereo not drawn) [Compound C37, 4-{1-[(2,6-Difluorophenyl)acetyl-2-d]piperidin-4-yl}-2-methyl-d2-6-methyl-5-{5-[2-(trifluoromethyl)pyrimidin-4-yl]-1,3,4-oxadiazol-2-yl}pyrimidine] | 22.1 |
| Cc1nc(C)c(-c2ncc(-c3ccnc(C(F)(F)F)n3)o2)c(C2CCN(C(=O)Nc3c(F)cccc3F)CC2)n1 [Compound C68, N-(2,6-Difluorophenyl)-4-(2,6-dimethyl-5-{5-[2-(trifluoromethyl)pyrimidin-4-yl]-1,3-oxazol-2-yl}pyrimidin-4-yl)piperidine-1-carboxamide] | 102 |
| C/C(=N\Oc1cc(F)nc(F)c1)c1cnc(N)nc1C1CCN(C(=O)Nc2c(F)cccc2F)CC1 [Compound B56, 4-(2-Amino-5-{(1E)-N-[(2,6-difluoropyridin-4-yl)oxy]ethanimidoyl}pyrimidin-4-yl)-N-(2,6-difluorophenyl)piperidine-1-carboxamide] | 31.8 |
| Cc1nc(C)c(-c2nnc(-c3ccnc(Cl)c3)o2)c(C2CCN(C(=O)Cc3c(F)cccc3F)CC2)n1 [Compound C22, 1-(4-(5-(5-(2-chloropyridin-4-yl)-1,3,4-oxadiazol-2-yl)-2,6-dimethylpyrimidin-4-yl)piperidin-1-yl)-2-(2,6-difluorophenyl)ethanone] | 3960 |
| Cc1ncc(C(=O)NOc2cccc(OC(F)(F)F)c2)c(C2CCN(C(=O)Cc3c(F)cccc3F)CC2)n1 [Compound H4, 4-(1-(2-(2,6-difluorophenyl)acetyl)piperidin-4-yl)-2-methyl-N-(3-(trifluoromethoxy)phenoxy)pyrimidine-5-carboxamide] | 294 |
| Cc1ncc(/C(CF)=N/Oc2ccnc(C(F)(F)F)n2)c(C2CCN(C(=O)Cc3c(F)cccc3F)CC2)n1 [Compound B27, (Z)-2-(2,6-difluorophenyl)-1-(4-(5-(2-fluoro-1-(((2-(trifluoromethyl)pyrimidin-4-yl)oxy)imino)ethyl)-2-methylpyrimidin-4-yl)piperidin-1-yl)ethanone] | 35.8 |
| Cc1ncc(-c2nnc(-c3ccnc(C(F)(F)F)n3)o2)c(C2CCN(C(=O)Cc3c(F)cccc3F)CC2)n1 [Compound C62, 4-{1-[(2,6-difluorophenyl)acetyl]piperidin-4-yl}-2-methyl-5-{5-[2-(trifluoromethyl)pyrimidin-4-yl]-1,3,4-oxadiazol-2-yl}pyrimidine] | 157 |
| Cc1ncc(C(=O)NCc2ccccc2)c(C2CCN(C(=O)Cc3c(F)cccc3F)CC2)n1 [Compound A69, N-benzyl-4-(1-(2-(2,6-difluorophenyl)acetyl)piperidin-4-yl)-2-methylpyrimidine-5-carboxamide] | 144 |
| Cc1nc(C2CCN(C(=O)Cc3c(F)cccc3F)CC2)c(C(=O)NCc2ccnc(C(F)(F)F)c2)c(=O)[nH]1 [Compound I5, 4-(1-(2-(2,6-difluorophenyl)acetyl)piperidin-4-yl)-2-methyl-6-oxo-N-((2-(trifluoromethyl)pyridin-4-yl)methyl)-1,6-dihydropyrimidine-5-carboxamide] | 69.3 |

More lines, now with the values ahead:

| IC50 [nM] | SMILES |
| --- | --- |
| 159 | O=C(COc1ccnc(C(F)(F)F)n1)c1cnc(NCCF)nc1C1CCN(C(=O)Nc2c(F)cccc2F)CC1 [Compound M7, N-(2,6-Difluorophenyl)-4-{2-[(2-fluoroethyl)amino]-5-({[2-(trifluoromethyl)pyrimidin-4-yl]oxy}acetyl)pyrimidin-4-yl}piperidine-1-carboxamide] |
| 6.5 | Cc1ncc(C(=O)COc2cccc(C(F)(F)F)n2)c(C2CCN(C(=O)Nc3c(F)cccc3F)CC2)n1 [Compound M4, N-(2,6-Difluorophenyl)-4-[2-methyl-5-({[6-(trifluoromethyl)pyridin-2-yl]oxy}acetyl)pyrimidin-4-yl]piperidine-1-carboxamide] |
| 9.2 | CC(=O)NCC(O)(COc1cccc(C(F)(F)F)n1)c1cnc(C)nc1C1CCN(C(=O)Oc2ccccc2F)CC1 (stereo not drawn) [Compound N43, 2-Fluorophenyl 4-{5-[2-(acetylamino)-1-hydroxy-1-({[6-(trifluoromethyl)pyridin-2-yl]oxy}methyl)ethyl]-2-methylpyrimidin-4-yl}piperidine-1-carboxylate] |
| 18.2 | CNC(COc1cccc(C(F)(F)F)n1)c1cnc(N)nc1C1CCN(C(=O)Nc2c(F)cccc2F)CC1 (stereo not drawn) [Compound N27, 4-{2-Amino-5-[1-(methylamino)-2-{[6-(trifluoromethyl)pyridin-2-yl]oxy}ethyl]pyrimidin-4-yl}-N-(2,6-difluorophenyl)piperidine-1-carboxamide] |
| 9.3 | Nc1ncc(C(N)COc2cccc(C(F)(F)F)n2)c(C2CCN(C(=O)Nc3c(F)cccc3F)CC2)n1 (stereo not drawn) [Compound N24, 4-[2-Amino-5-(1-amino-2-{[6-(trifluoromethyl)pyridin-2-yl]oxy}ethyl)pyrimidin-4-yl]-N-(2,6-difluorophenyl)piperidine-1-carboxamide] |
| 39 | CC(=O)NCC(O)(COc1cccc(C(F)(F)F)n1)c1cnc(C)nc1C1CCN(C(=O)Oc2ccc(F)cc2)CC1 (stereo not drawn) [Compound N46, 4-Fluorophenyl 4-{5-[2-(acetylamino)-1-hydroxy-1-({[6-(trifluoromethyl)pyridin-2-yl]oxy}methyl)ethyl]-2-methylpyrimidin-4-yl}piperidine-1-carboxylate] |
| 20.9 | CC(=O)Nc1nc(C)c(C(O)COc2cccc(C(F)(F)F)n2)c(C2CCN(C(=O)Nc3c(F)cccc3F)CC2)n1 (stereo not drawn) [Compound N10, 4-[2-(Acetylamino)-5-(1-hydroxy-2-{1-[6-(trifluoromethyl)pyridin-2-yl]oxy}ethyl)-6-methylpyrimidin-4-yl]-N-(2,6-difluorophenyl)piperidine-1-carboxamide] |
| 4 | Cc1nc(C)c(C(O)COc2cccc(C(F)(F)F)n2)c(C2CCN(C(=O)Nc3c(F)cccc3F)CC2)n1 (stereo not drawn) [Compound N6, N-(2,6-Difluorophenyl)-4-[5-(1-hydroxy-2-{[6-(trifluoromethyl)pyridin-2-yl]oxy}ethyl)-2,6-dimethylpyrimidin-4-yl]piperidine-1-carboxamide] |
| 10.9 | Cc1ncc(C(F)(F)COc2cccc(C(F)(F)F)n2)c(C2CCN(C(=O)Nc3c(F)cccc3C(F)(F)F)CC2)n1 [Compound N15, 4-[5-(1,1-Difluoro-2-{[6-(trifluoromethyl)pyridin-2-yl]oxy}ethyl)-2-methylpyrimidin-4-yl]-N-[2-fluoro-6-(trifluoromethyl)phenyl]piperidine-1-carboxamide] |
| 7.7 | Cc1cc(C)cc(CCCc2cnc(C)nc2C2CCN(C(=O)Cc3c(F)cccc3F)CC2)c1 [Compound J3, 2-(2,6-Difluorophenyl)-1-(4-(5-(3-(3,5-dimethylphenyl)propyl)-2-methylpyrimidin-4-yl)piperidin-1-yl)ethanone] |
| 2.3 | Nc1ncc(C(O)COc2cccc(C(F)(F)F)n2)c(C2CCN(C(=O)Nc3c(F)cccc3F)CC2)n1 (stereo not drawn) [Compound N3, 4-[2-Amino-5-(1-hydroxy-2-{[6-(trifluoromethyl)pyridin-2-yl]oxy}ethyl)pyrimidin-4-yl]-N-(2,6-difluorophenyl)piperidine-1-carboxamide] |
